“And” between values parts separate entries of the source, which are not always exact repeats. Equal entries are not always repeated.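 48-hour exposure; five concentrations; linearly interpolated endpoints. GI50 marks 50% less growth. TGI is the concentration that stops growth completely.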 Some results are limits rather than exact numbers.

Test systems include HCT-15 colon; MDA-MB-435; HOP-62 NSCLC; SK-MEL-5 melanoma; 786-0 renal; MOLT-4 leukemia; KM12 colon; SF-268 CNS; UACC-62 melanoma; UACC-257 melanoma.
Holding throughout (test): growth of human tumour cells (NCI), 48 h

Take `Cc1cc(Nc2cc(N3CCN(C)CC3)nc(C#Cc3ccccc3)n2)n[nH]1`: the GI50 with HCT-15 colon was 2230 nM; with MDA-MB-435, 3240 nM; in the test with HOP-62 NSCLC, 3190 nM; in the test on SK-MEL-5 melanoma, 4320 nM; in the test with 786-0 renal it was 3130 nM; with MOLT-4 leukemia, 3460 nM. Also, the GI50 with KM12 colon is 350 nM; with SF-268 CNS it was 3820 nM; with UACC-62 melanoma, 2450 nM; with UACC-257 melanoma, 3580 nM. Also, the TGI in the test with HCT-15 colon is 15500 nM; with MDA-MB-435 it was 16100 nM; with HOP-62 NSCLC, 13900 nM; in the test on SK-MEL-5 melanoma, 16500 nM; with 786-0 renal, 14200 nM; with MOLT-4 leukemia, 19200 nM. Also, the TGI was determined as 11700 nM with KM12 colon, 16800 nM in the test with SF-268 CNS, 15100 nM in the test on UACC-62 melanoma and 15900 nM in the test with UACC-257 melanoma.
For the compound `O=C1c2c(O)ccc(O)c2C(=O)c2c(NCCNCCO)ccc(NCCNCCO)c21`, the TGI was 2550 nM and 24000 nM and 4150 nM in the test with HCT-15 colon; 1650 nM and 1070 nM and 1820 nM in the test on MDA-MB-435; 122 nM and 85.1 nM and 204 nM in the test with HOP-62 NSCLC; 689 nM and 329 nM and 657 nM with SK-MEL-5 melanoma; 130 nM and 299 nM and 584 nM in the test with 786-0 renal; 235 nM and 339 nM with MOLT-4 leukemia. The TGI is 2580 nM and 2590 nM and 3900 nM in the test with KM12 colon; 320 nM and 696 nM and 845 nM with SF-268 CNS; 218 nM and 756 nM and 595 nM in the test on UACC-62 melanoma; 4610 nM and 6140 nM and 7320 nM with UACC-257 melanoma. Further, the GI50 is 297 nM in the test on MDA-MB-435; < 10 nM and < 5 nM and 4.76 nM in the test with MOLT-4 leukemia; 459 nM in the test with KM12 colon; 820 nM in the test with UACC-257 melanoma.
For `COc1cc(/C=C2/C(=O)N(C(=O)c3ccccc3O)N=C2C)ccc1O`, the TGI in the test with HCT-15 colon is above 100000 nM; in the test on MDA-MB-435 it was above 100000 nM; in the test on HOP-62 NSCLC it was above 38900 nM; in the test on SK-MEL-5 melanoma it was above 42100 nM; in the test with 786-0 renal it was above 100000 nM; with MOLT-4 leukemia, above 100000 nM. The TGI in the test on KM12 colon was above 100000 nM; in the test with SF-268 CNS it was above 100000 nM; in the test on UACC-62 melanoma, 364 nM; with UACC-257 melanoma, above 100000 nM.
As for `NC(=O)c1c(NC(=O)c2cccc(C(F)(F)F)c2)sc2c1CCC(=O)C2`, the GI50 in the test with HCT-15 colon is 321 nM; with MDA-MB-435, 622 nM; with HOP-62 NSCLC, 3060 nM; with SK-MEL-5 melanoma, 1180 nM; in the test with 786-0 renal, 1940 nM; in the test on MOLT-4 leukemia, 404 nM. In addition, the GI50 with KM12 colon is 394 nM; in the test on SF-268 CNS it was 429 nM; in the test with UACC-62 melanoma it was 368 nM; with UACC-257 melanoma, 2170 nM. For the same compound, the TGI with HCT-15 colon is 1820 nM; in the test on MDA-MB-435, 7680 nM; with HOP-62 NSCLC, above 91500 nM; in the test with SK-MEL-5 melanoma, 2950 nM; in the test with 786-0 renal, above 100000 nM; with MOLT-4 leukemia it was above 20200 nM. Moreover, the TGI was 2010 nM in the test with KM12 colon, above 100000 nM in the test with SF-268 CNS, 1660 nM in the test on UACC-62 melanoma and 6380 nM with UACC-257 melanoma.
As for `CC(=O)OC1Oc2cc(C)c(C)cc2-c2oc(=O)c(-c3ccccc3)cc21` (configuration not stated), the GI50 is 323 nM in the test with HCT-15 colon; 36 nM in the test on MDA-MB-435; 440 nM in the test with HOP-62 NSCLC; 231 nM in the test on SK-MEL-5 melanoma; 429 nM in the test on 786-0 renal; 355 nM with MOLT-4 leukemia. Besides, the GI50 in the test on KM12 colon is 307 nM; in the test on SF-268 CNS, 580 nM; in the test with UACC-62 melanoma, 289 nM; in the test with UACC-257 melanoma, 537 nM. The TGI with HCT-15 colon is above 100000 nM; in the test with MDA-MB-435, 199 nM; with HOP-62 NSCLC, 21900 nM; in the test with SK-MEL-5 melanoma, 4060 nM; in the test with 786-0 renal, 24800 nM; in the test on KM12 colon, 11800 nM. In addition, the TGI with SF-268 CNS is above 50600 nM; with UACC-62 melanoma, above 32600 nM; in the test on UACC-257 melanoma, 39000 nM.
On to `CC(=O)c1c(Nc2ccc(F)c(F)c2F)[nH]c2c(F)cc(F)cc2c1=O`, for which the GI50 is 331 nM with HCT-15 colon; 365 nM in the test on MDA-MB-435; 335 nM in the test with HOP-62 NSCLC; 188 nM with SK-MEL-5 melanoma; 368 nM with 786-0 renal; 425 nM in the test with MOLT-4 leukemia. Moreover, the GI50 in the test with KM12 colon is 342 nM; in the test on SF-268 CNS it was 341 nM; in the test on UACC-62 melanoma, 233 nM; in the test on UACC-257 melanoma, 338 nM. Also, the TGI in the test with HCT-15 colon was 1730 nM; in the test with MDA-MB-435, 7260 nM; in the test on HOP-62 NSCLC, 8180 nM; with SK-MEL-5 melanoma it was 431 nM; with 786-0 renal it was 15100 nM; in the test on KM12 colon, 5570 nM. For the same compound, the results for the TGI with SF-268 CNS, in the test on UACC-62 melanoma and with UACC-257 melanoma were 43100 nM, 836 nM and 10000 nM, respectively.
As for `COc1ccc2nc3cc(Cl)ccc3c(Nc3ccc(O)c(CN4CCCC4)c3)c2c1`, the GI50 with HCT-15 colon was 2600 nM; in the test on MDA-MB-435, 1760 nM; in the test with HOP-62 NSCLC it was 2140 nM; in the test on SK-MEL-5 melanoma, 1820 nM; with 786-0 renal, 1830 nM; in the test with MOLT-4 leukemia, 2430 nM. The GI50 in the test on KM12 colon was 3130 nM; in the test on SF-268 CNS it was 3790 nM; in the test on UACC-62 melanoma it was 1710 nM; in the test on UACC-257 melanoma, 2150 nM. Moreover, the TGI in the test on HCT-15 colon was 10300 nM; in the test with MDA-MB-435 it was 3520 nM; with HOP-62 NSCLC, 5340 nM; in the test with SK-MEL-5 melanoma, 3240 nM; in the test on 786-0 renal, 3500 nM; in the test with MOLT-4 leukemia it was 11400 nM. Moreover, the TGI was above 100000 nM with KM12 colon, above 100000 nM in the test on SF-268 CNS, 3510 nM in the test with UACC-62 melanoma and 3830 nM in the test on UACC-257 melanoma.
On to `COc1ccccc1-c1nccc(COc2ccccc2C[C@@H](Oc2ncnc3sc(-c4ccc(F)cc4)c(-c4ccc(OCCN5CCN(C)CC5)c(Cl)c4C)c23)C(=O)O)n1`, for which the GI50 was 5820 nM in the test with HCT-15 colon; 450 nM in the test on MDA-MB-435; 2390 nM with HOP-62 NSCLC; 1710 nM in the test with SK-MEL-5 melanoma; 2010 nM in the test on 786-0 renal; 43.6 nM in the test on MOLT-4 leukemia. The GI50 was 3330 nM in the test on KM12 colon, 3690 nM in the test with SF-268 CNS, 76.1 nM in the test with UACC-62 melanoma and 3010 nM in the test on UACC-257 melanoma. Besides, the TGI with HCT-15 colon was found to be 16400 nM; in the test with MDA-MB-435, 2210 nM; in the test with HOP-62 NSCLC, 7210 nM; in the test on SK-MEL-5 melanoma it was 3120 nM; with 786-0 renal, 4200 nM; in the test with MOLT-4 leukemia it was 1540 nM. The TGI came out at 12100 nM with KM12 colon, 17500 nM in the test on SF-268 CNS, 1410 nM with UACC-62 melanoma and 11200 nM with UACC-257 melanoma.
